Laboratory results as given in patent US8461142B2, “Water-soluble anionic bacteriochlorophyll derivatives and their uses” (Yeda Research and Development Co. Ltd., priority 2002, dated 2013).

How the values were obtained:
M2R mouse melanoma cells = assay: Phototoxicity assay (Neutral Red viability after illumination), M2R cells; type: cell-based; settings: 4 hours incubation; for dark toxicity: kept in the dark, tested range; for LD50 (phototoxicity): washed, illuminated (λ>650 nm, 12 J/cm^2), survival 24 h after illumination
Description: (§1) M2R mouse melanoma, H5V mouse endothelial and C6 rat glioma cells were cultured as monolayers in Dulbecco's modified Eagle's medium (DMEM)/F12 containing 25 mM HEPES, pH 7.4, 10% fetal bovine serum (FBS), glutamine (2 mM), penicillin (0.06 mg/ml), and streptomycin (0.1 mg/ml) (hereinafter referred to as the “Culture Medium”). Cells were grown at 37° C. in an 8% CO2-humidified atmosphere.
(§2) To determine the photodynamic efficacy, cells were preincubated with increasing concentrations of the pigments in the dark for the times and conditions as indicated for the individual experiments. Unbound sensitizer was removed by washing the cells once with culture medium, and the plates were illuminated at room temperature from the bottom (λ>650 nm, 12 J/cm^2). The light source was a 100 W Halogen lamp (Osram, Germany) equipped with a 4-cm water filter. The cultures were placed in the culture incubator and cell survival was determined 24 h after illumination, by Neutral Red viability assay. Three kinds of controls were used: (i) light control: cells illuminated in the absence of pigments; (ii) dark control: cells treated with pigments but kept in the dark; and (iii) untreated cells that were kept in the dark.
(§3) The phototoxicity of compounds 4 and 8 was determined as described in (ii) above in M2R mouse melanoma and H5V mouse endothelial cells. Cells were preincubated with increasing concentrations of the compound for 4 hours, washed and illuminated or kept in the dark.

[1] = test system: choroid and overlying retina (choriocapillaries)
Description: The WST11 powder was diluted in endotoxin-free sterile water at a concentration of 10 mg/ml, and shaken until complete dissolution. […] To calculate the volume to be injected, adjustment was made according to the rabbit weight. The appropriate volume solution was injected intravenously as a bolus via the marginal ear vein.
Pigmented rabbits (136 “Fauve de Bourgogne” rabbits, 10-12 weeks old, 2.5-3 kg; Elevage des Pins, Epeigne-sur-Dême, France) were used. Acute and long term PDT effects on the rabbit eye were investigated for the following parameters: 1) 753 nm laser fluence (25 and 50 J/cm^2), Compound 4 (also designated WST11) doses (2.5 and 5 mg/kg) and distance to light illumination (DLI) of 1,5,10 and 15 minutes. 2) 689 nm laser fluence (10, 50, 100 J/cm^2), verteporfin doses (3, 6 and 12 mg/m^2) and a constant DLI of 5 min. These PDT parameters encompassed an array of effects on the choroid and the overlying retina were delivered for 83 seconds to induce occlusive, subthreshold occlusive and non-occlusive vascular events. Treated rabbit eyes were examined and followed by indirect ophthalmoscopy, fluorescein angiography (FA) and histology at various intervals after PDT.
For the histology, enucleated eyes were dissected under a binocular microscope. A 4 mm biopsy punch was used to excise the full thickness of treated zones. These tissues were fixed in glutaraldehyde, processed in cacodylate buffer and embedded in plastic. Semi-thin sections were obtained using a microtome and counter-stained with hematoxilin-eosin. These sections were analyzed using phase contrast microscopy. Specific sites of interest were further processed for TEM. Ultrathin sections were obtained using an ultramicrotome and counter-stained with uranyl acetate.

[2] = Biodistribution in CD1 nude mice (Pd content of organs); type: in vivo
Description: Mice were sacrificed at different times following compound 4 injection (6 mg/kg), and Pd content was determined for the indicated organs. Each time point represents average of three mice±STD.
(§4) Pigment 4 of the invention (6 mg/kg body) was injected to CD1 nude mice via tail vein. Mice were sacrificed at the indicated times, and samples of the indicated organs or tissues were placed and weighed in pre-weighted vials and immediately frozen on dry ice. For examination, each sample was thawed and homogenized (1:10 w/v) in double-distilled water. Aliquots of the homogenate (0.5 ml) were lyophilized in Eppendorff test tubes. Then 0.2 ml of HNO3 (70%, TraceSelect, Fluka) was added to each dry sample, incubated for 1 h at 90° C. and diluted in double-distilled water to 10 ml. Palladium concentrations were determined by ICP-MS. Background was determined for each organ/tissue on identical samples taken from untreated mice, and values were subtracted accordingly.

[3] = test system: H5V mouse endothelial cells; assay: Phototoxicity assay (Neutral Red viability after illumination), H5V cells; type: cell-based; settings: 4 hours incubation; for dark toxicity: kept in the dark, tested range; for LD50 (phototoxicity): washed, illuminated (λ>650 nm, 12 J/cm^2), survival 24 h after illumination
Description: as §1, §2, §3

rat C6 glioma xenografts = assay: Vascular shutdown and permeability (Evans Blue) after PDT of C6 glioma xenografts; type: in vivo, mice; settings: 9 mg/kg, 100 mW/cm^2 for 5 min; 24 hours after PDT
Description: FIGS. 8a-8h are photographs showing the selective effect of PDT in mice bearing rat C6 glioma xenografts and treated with compound 4. (a-d) PDT treated animal; (e-h) untreated animal. (a) before treatment; (b) 3 hours after PDT and Evans-Blue (EB) injection; (c) skin flap of the treated area, 24 hours after PDT; (d) axial slice of the treated tumor 24 hours after PDT; (e) before EB injection; (f) 3 hours after EB injection; (g) skin flap 24 hours after EB injection; (h) axial slice of the untreated tumor, 24 hours after EB injection. T-tumor; S-skin; M-muscle; E-edema.
(§5) M2R or C6 cells (2×10^6) were implanted subcutaneously on the back of the mice; tumors developed to the treatment size (6-8 mm) within 2-3 weeks.
Mice bearing C6 glioma tumor xenografts were treated with pigment 4 (9 mg/kg) and light (100 mW/cm^2 for 5 min) Immediately after treatment, Evans Blue (EB; 1% in PBS) was injected (0.5 ml, i.p.). Mice were photographed at 3 and 24 hours after treatment. The mice were sacrificed 24 hours after treatment and skin flap was made for each mouse and photographed. Then the tumor was removed with the skin above it, frozen for 1 hour at −20° C., and then axial slice was made and the slice was photographed. Control mice were injected with Evans Blue at the same time as the treated mice, and the protocol was continued as described above for all the mice together.

[4] = Aqueous solubility and stability of solution; type: physicochemical
From the text: Compound 4 is a pure and stable bacteriochlorophyll derivative isolated as a black purple crystalline powder. […] It is characterized by the following properties: (a) 4 main absorption peaks (750, 530, 385 and 330 nm). The strongest absorbance of light is near the infrared (≈750 nm) where tissue transmittance is the highest; (b) a very low cytotoxicity in the dark. Thus, tissue damage can be controlled by the light dose and length of exposure; (c) it is rapidly cleared from the body after administration. Therefore, potential skin photosensitization damage on exposure to ambient light or to the sun light is minimal; (d) generation of reactive oxygen species (ROS) is high because of efficient intersystem crossing (ISC).

M2R melanoma xenografts = assay: PDT of M2R melanoma xenografts in CD1 nude mice; type: in vivo; settings: for mice cure rate: 6 mg/kg i.v.
Description: as §5
Stock solutions of the compounds of the invention were prepared prior to use by dissolving the dry pigment directly in PBS to the desired concentration for injection.
The M2R tumor-bearing mice were anesthetized and the pigment was injected intravenously (i.v.) via the tail vein. The tumors were immediately illuminated transcutaneously for 5 min by 755 nm diode laser (CeramOptec, Germany) with light dose of either 30 J/cm2 (100 mW/cm2), 39 J/cm2 (130 mW/cm2) or 45 J/cm2 (150 mW/cm2). After the treatment, the mice were returned to the cage. […] In the light control group, the mice were illuminated with 45 J/cm^2.
In these experiments (see section (vii) above), a dedicated medical laser matched to the peak absorption of 4 (CeramOptec, Germany, 755 nm) was used. In order to determine the optimal drug/light protocol, mice were treated with drug dose of 6 mg/kg and increasing the light intensity (FIG. 7).

[5] = Pharmacokinetics in CD1 nude mice blood (Pd by ICP-MS); type: in vivo
Description: as §4, with “FIG. 5 is a graph showing pharmacokinetics of compound 4 in CD1 nude mice blood. Following compound 4 injection (6 mg/kg), blood samples were collected from the same mouse at the indicated times and Pd was determined. Each time point represents average of three mice±STD. Pigment” for “Pigment”, “Then 0.2 ml of HNO3 (70%, TraceSelect, Fluka) was added to each dry sample, incubated for 1 h at 90° C. and diluted in double-distilled water to 10 ml.” left out

In the case of CC[C@H]1c2cc3[nH]c(c(CC(=O)OC)c4nc(cc5[nH]c(cc(n2)[C@@H]1C)c(C(C)=O)c5C)[C@@H](C)[C@@H]4CCC(=O)O)c(C(=O)NCCS(=O)(=O)[O-])c3C.[K+] [Compound 5, 3^1-oxo-15-methoxycarbonylmethyl-Rhodobacteriochlorin 13^1-(2-sulfoethyl)amide dipotassium salt], the dark toxicity (M2R mouse melanoma cells) is reported as “no dark toxicity” and the “LD50 (phototoxicity)” value (M2R mouse melanoma cells) is reported as roughly 5 µM.
With “Zinc 3^1-oxo-15-methoxycarbonylmethyl-Rhodobacteriochlorin 13^1-(2-sulfoethyl) amide dipotassium salt [Compound 11]” the dark toxicity (M2R mouse melanoma cells) was “no dark toxicity” and the “LD50 (phototoxicity)” value (M2R mouse melanoma cells) was roughly 5 µM.
In the case of verteporfin [reference compound], the “eyes with occlusive events (observed by FA)” value ([1]; 12 mg/m^2, 100 J/cm^2, DLI 5 minutes, 689 nm) is reported as 89% and the “choriocapillaries occlusion on FA” value ([1]; non-occlusive parameters: 3 mg/m^2, 10 J/cm^2, DLI 5 minutes) is reported as “did not induce any choriocapillaries occlusion”.
In the case of “Pd-Bacteriopheophorbide a [Pd-Bpheid, reference compound]”, the “time after injection to reach background levels” value ([2]; mouse body, not shown) is reported as 48 h.
For “Palladium 3^1-oxo-15-methoxycarbonylmethyl-Rhodobacteriochlorin 13^1,17^3-di(3-sulfopropyl)amide dipotassium salt [Compound 8]”, the dark toxicity (M2R mouse melanoma cells) was “without any dark toxicity”, the “LD50 (phototoxicity)” value (M2R mouse melanoma cells) was roughly 2 µM and the dark toxicity [3] was “without any dark toxicity”. The “LD50 (phototoxicity)” value [3] was roughly 2 µM.
In the case of “Palladium 3^1-oxo-15-methoxycarbonylmethyl-Rhodobacteriochlorin 13^1-(2-sulfo-ethyl)amide dipotassium salt [Compound 4]”, the “time after injection to background levels in all tissues” value ([2]; 6 mg/kg i.v.) is reported as no more than 30 min, the “time for pigment levels to drop to almost background levels in most of the examined organs” value ([2]; 6 mg/kg i.v.) is reported as 20 to 30 min and the “effect on tumor blood perfusion (Evans Blue)” value (rat C6 glioma xenografts) is reported as “vascular shutdown”. For the same compound, the stability of formulation ([4]; 10 mg/ml in endotoxin-free sterile water, 4° C., protected from light) was 24 h, the solubility ([4]; aqueous solution) was “soluble in aqueous solution” and the “treated eyes with total choroidal occlusion associated with structural lesions of the overlying RPE and retina” value ([1]; fluence 50 J/cm^2, 5 mg/kg, DLI 1 minute, 753 nm) was 100%. For the same compound, the “choriocapillaries occlusion and retinal lesions” value ([1]; non-occlusive parameters: 25 J/cm^2, 5 mg/kg, DLI 10 minutes) was “did not induce choriocapillaries occlusion nor retinal lesions”, the “duration of occlusion of the choriocapillaries after PDT” value ([1]; rabbit eye) was “up to one week” and the dark toxicity (M2R mouse melanoma cells) was “without any dark toxicity”. The “LD50 (phototoxicity)” value (M2R mouse melanoma cells) was roughly 2 µM, the mice cure rate (M2R melanoma xenografts; 30 J/cm^2, 5 min illumination at 755 nm immediately after injection) was 43% and the mice cure rate (M2R melanoma xenografts; 45 J/cm^2, 5 min illumination at 755 nm immediately after injection) was 60%. The mice survival (M2R melanoma xenografts; 9 mg/kg i.v., 30 J/cm^2, 5 min illumination) was 70%, the “dark toxicity in animals” value (M2R melanoma xenografts; 6 or 9 mg/kg, kept in the dark) was “No dark toxicity” and the “CL (clearance)” value ([5]; 6 mg/kg i.v., mice blood) was 0.89 mL/min. The “Kel (rate of elimination)” value ([5]; 6 mg/kg i.v., mice blood) was 0.42 min⁻¹, the “Vd (volume of distribution)” value ([5]; 6 mg/kg i.v., mice blood) was 2.12 mL and the T0.5 ([5]; 6 mg/kg i.v., mice blood, monophasic) was 1.65 min. The “pigment cleared from blood within the first 10-min after i.v. injection” value ([5]; mouse, in vivo) was “about 90%”, the dark toxicity [3] was “without any dark toxicity” and the “LD50 (phototoxicity)” value [3] was roughly 2 µM.
